Tests used:
PDE10 = PDE10 (Homo sapiens, UniProt Q9Y233); experiment: PDE10 assay with fluorescent substrate (IMAP, fluorescence polarization); format: biochemical
Description: (§1) c) Phosphodiesterase (PDE) 2A and 10 Assay with Fluorescent Substrate
(§2) The PDE reaction cleaves cAMP to AMP. The IMAP system (Molecular Device) using fluorescence polarization (FP) as detection principle was used to measure enzyme activity. A fluorescent labeled cAMP was used as substrate for the reaction, generating a labeled AMP. The fluorescent AMP binds specifically to the large M(III)-based nano-particles which reduces the rotational speed of the substrate and thus increases its polarization.
(§3) The inhibition of PDE 2A or 10 enzyme activity was assessed using IMAP-Phosphodiesterase-cAMP fluorescence labeled substrate (Molecular Devices, Order No. R7506), IMAP TR-FRET screening express (Molecular Devices, Order No. R8160, the TR-FRET component will not be used) and PDE 2A or PDE10 protein expressed upon baculovirus infection in SF9 cells. The cells were incubated after infection for ˜3 days and protein production was confirmed by Western Blot. The cells were collected by centrifugation and the pellet frozen in liquid nitrogen before it was resuspended in PBS containing 1% Triton X-100 and protease inhibitors.
(§4) All reactions were performed in 384 well plates, Perkin Elmer black optiplates and IMAP reaction buffer with 0.1% Tween20 (kit component)
(§5) Compounds were serial diluted in DMSO. With an intermediate dilution step with reaction buffer DMSO concentration was reduced to achieve 1% DMSO in the assay reaction. Setup of the assay started with 10 μl enzyme (˜10 ng/well, depending on prep. batch), 5 μl compound, reaction was started by addition of 5 μl labeled cAMP (30 nM, final concentration), immediately mixed for 15 seconds on a Eppendorf mixmate (2000 rpm) followed by an incubation at room temperature for 90 minutes in the dark. Reaction is stopped by adding of 60 μl binding buffer for FP/cAMP (kit component).
(§6) Each assay plate contained wells with vehicle controls (1% DMSO) for the measurement of non-inhibited reaction (=100% control) and wells without enzyme as 0% controls.

[1] = Metabolic stability in pooled liver microsomes; format: in vitro ADME; conditions: human liver microsomes, 37° C., 1 mg/mL microsomal protein, test compound 1 μM, NADPH
Description: The metabolic stability of the compounds according to the invention has been investigated as follows:
The metabolic degradation of the test compound was assayed at 37° C. with pooled liver microsomes from various species. The final incubation volume of 100 μl per time point contains TRIS buffer pH 7.6 at room temperature (0.1 M), magnesium chloride (5 mM), microsomal protein (1 mg/mL for human and dog, 0.5 mg/mL for other species) and the test compound at a final concentration of 1 μM. Following a short preincubation period at 37° C., the reactions were initiated by addition of betanicotinamide adenine dinucleotide phosphate, reduced form (NADPH, 1 mM), and terminated by transferring an aliquot into solvent after different time points. […] The half-life was determined by the slope of the semi-logarithmic plot of the concentration-time profile.

PDE2A = PDE2A (Homo sapiens, UniProt O00408); experiment: PDE 2A assay with fluorescent substrate (IMAP, fluorescence polarization); format: biochemical; conditions: read-out: PDE2 IC50
Sequence of PDE2A (O00408 whole entry, species assumed): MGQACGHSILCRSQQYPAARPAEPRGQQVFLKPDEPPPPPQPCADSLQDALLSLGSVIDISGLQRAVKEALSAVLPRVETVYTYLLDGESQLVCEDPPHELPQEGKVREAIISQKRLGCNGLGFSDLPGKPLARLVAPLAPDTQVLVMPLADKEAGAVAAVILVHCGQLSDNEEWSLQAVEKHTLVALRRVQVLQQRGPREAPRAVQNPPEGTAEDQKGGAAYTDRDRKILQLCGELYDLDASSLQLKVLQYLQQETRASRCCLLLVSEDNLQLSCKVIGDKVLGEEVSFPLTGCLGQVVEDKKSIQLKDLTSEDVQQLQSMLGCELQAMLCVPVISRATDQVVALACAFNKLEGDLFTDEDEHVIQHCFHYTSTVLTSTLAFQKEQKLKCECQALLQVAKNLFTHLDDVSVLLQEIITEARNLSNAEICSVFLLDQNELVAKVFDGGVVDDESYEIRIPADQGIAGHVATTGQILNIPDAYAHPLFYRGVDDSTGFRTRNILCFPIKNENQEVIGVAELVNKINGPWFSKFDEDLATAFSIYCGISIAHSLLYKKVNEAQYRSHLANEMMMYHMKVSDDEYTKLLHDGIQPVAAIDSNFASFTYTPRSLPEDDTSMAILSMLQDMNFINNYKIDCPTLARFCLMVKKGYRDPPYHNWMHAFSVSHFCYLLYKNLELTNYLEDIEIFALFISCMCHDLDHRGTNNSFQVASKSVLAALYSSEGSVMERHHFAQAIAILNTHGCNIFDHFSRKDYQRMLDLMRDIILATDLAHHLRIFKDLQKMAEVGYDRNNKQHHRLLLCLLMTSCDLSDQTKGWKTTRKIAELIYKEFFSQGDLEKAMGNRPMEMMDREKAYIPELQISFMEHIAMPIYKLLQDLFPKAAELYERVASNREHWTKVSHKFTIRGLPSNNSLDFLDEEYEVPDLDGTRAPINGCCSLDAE
Description: as §1, §2, §3, §4, §5, §6

Sequence of PDE10 (Q9Y233 whole entry, species assumed): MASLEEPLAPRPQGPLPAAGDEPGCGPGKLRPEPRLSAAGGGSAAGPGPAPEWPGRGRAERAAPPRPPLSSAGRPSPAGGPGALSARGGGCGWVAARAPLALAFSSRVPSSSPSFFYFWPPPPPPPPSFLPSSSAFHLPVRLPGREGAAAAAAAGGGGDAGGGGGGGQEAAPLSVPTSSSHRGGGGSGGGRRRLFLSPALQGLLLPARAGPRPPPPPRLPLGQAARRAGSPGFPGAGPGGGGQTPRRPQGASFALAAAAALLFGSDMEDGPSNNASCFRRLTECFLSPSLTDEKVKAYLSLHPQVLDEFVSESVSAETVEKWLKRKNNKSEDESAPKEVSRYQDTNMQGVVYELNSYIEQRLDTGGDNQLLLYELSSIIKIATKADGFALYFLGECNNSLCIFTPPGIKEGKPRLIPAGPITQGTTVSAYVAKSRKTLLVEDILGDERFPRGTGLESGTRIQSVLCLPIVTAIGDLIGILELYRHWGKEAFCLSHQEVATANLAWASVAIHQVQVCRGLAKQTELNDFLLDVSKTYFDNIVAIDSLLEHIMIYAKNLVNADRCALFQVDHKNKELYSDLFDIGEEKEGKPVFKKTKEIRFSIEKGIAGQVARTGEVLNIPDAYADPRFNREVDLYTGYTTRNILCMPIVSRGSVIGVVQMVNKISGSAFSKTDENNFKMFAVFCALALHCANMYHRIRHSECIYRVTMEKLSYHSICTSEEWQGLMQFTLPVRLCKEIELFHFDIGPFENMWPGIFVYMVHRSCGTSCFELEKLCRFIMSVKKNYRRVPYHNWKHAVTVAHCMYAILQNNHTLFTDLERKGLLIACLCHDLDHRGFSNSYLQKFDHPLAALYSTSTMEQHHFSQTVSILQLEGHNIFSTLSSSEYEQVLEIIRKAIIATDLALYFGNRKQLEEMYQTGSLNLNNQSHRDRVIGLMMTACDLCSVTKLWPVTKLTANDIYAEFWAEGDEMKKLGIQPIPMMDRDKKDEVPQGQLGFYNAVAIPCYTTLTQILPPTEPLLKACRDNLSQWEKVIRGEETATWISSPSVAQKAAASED

Row | SMILES | IC50 (PDE10) [µM] | Half-life - t½ [1] [h] | IC50 (PDE2A) [µM]
1 | Cc1nc2ccc(C3CC3)nc2n2c(-c3cc(OC4COCC4O)ccc3Cl)nnc12 (racemic) [Example 56] | 0.061 |  | 
2 | Cc1ccc(OC2COCC2O)cc1-c1nnc2c(C)nc3ccc(C4CC4)nc3n12 (racemic) [Example 57] |  | 2.17 | 
3 | Cc1nc2ccc(C3CC3)nc2n2c(-c3cc(C4(O)CCOC4)ccc3Cl)nnc12 (racemic) [Example 97] |  |  | 0.004
4 | Cc1nc2ccc(C3CC3)nc2n2c(-c3cc(C4(O)CCOCC4O)ccc3F)nnc12 (racemic) [Example 105] | 1.54 |  | 
5 | Cc1nc2cccnc2n2c(-c3cc(C4(O)CCOC4)ccc3Cl)nnc12 (single isomer, unassigned) [Example 98] | 1.56 |  | 0.139
6 | Cc1nc2ccc(C3CC3)nc2n2c(-c3cc(O)ccc3F)nnc12 [Example 5] | 0.005 |  | 
7 | Cc1ccc(O)cc1-c1nnc2c(C)nc3ccc(C4CC4)nc3n12 [Example 6] | 0.01 |  | 0.003
8 | Cc1ccc(O)cc1-c1nnc2c(C)nc3ccc(C(C)C)nc3n12 [Example 7] | 0.016 |  | 0.003
9 | Cc1nc2ccc(C(C)C)nc2n2c(-c3cc(O)ccc3F)nnc12 [Example 8] | 0.008 |  | 0.002
10 | Cc1nc2ccc(C3CC3)nc2n2c(-c3cc(O)ccc3Cl)nnc12 [Example 9] | 0.015 |  | 0.001
11 | Cc1cnc2c(c1)nc(C)c1nnc(-c3cc(O)ccc3Cl)n12 [Example 11] | 0.123 |  | 0.059
12 | Cc1nc2ccc(C(F)(F)F)nc2n2c(-c3cc(O)ccc3Cl)nnc12 [Example 12] | 0.044 |  | 0.009
13 | Cc1ccc(O)cc1-c1nnc2c(C)nc3ccc(C(F)(F)F)nc3n12 [Example 12a] | 0.17 |  | 0.036
14 | Cc1nc2cccnc2n2c(-c3cc(OC[C@@H](C)O)ccc3Cl)nnc12 [Example 17] |  | 2.17 | 
15 | Cc1ccc2nc(C)c3nnc(-c4cc(OCC(C)(C)O)ccc4Cl)n3c2n1 [Example 46] |  | 2.17 | 0.05
16 | Cc1ccc(OCC(C)(C)O)cc1-c1nnc2c(C)nc3ccc(C(C)C)nc3n12 [Example 51] |  | 2.17 | 0.009
17 | Cc1nc2cccnc2n2c(-c3cc(OCC4(O)CCC4)ccc3F)nnc12 [Example 53] | 2.83 |  | 0.14
18 | Cc1ccc2nc(C)c3nnc(-c4cc(CO)ccc4Cl)n3c2n1 [Example 60] | 0.285 |  | 
19 | CCCC(O)c1ccc(Cl)c(-c2nnc3c(C)nc4ccc(C)nc4n23)c1 (centres unmarked) [Example 61] | 0.534 |  | 0.004
20 | CCC(O)c1ccc(Cl)c(-c2nnc3c(C)nc4ccc(C)nc4n23)c1 (centres unmarked) [Example 62] |  | 2.17 | 0.011

Row | SMILES | IC50 (PDE10) [µM] | Half-life - t½ [1] [h] | IC50 (PDE2A) [µM]
21 | Cc1nc2cccnc2n2c(-c3cc(CCC(C)(C)O)ccc3F)nnc12 [Example 65] | 3.54 |  | 
22 | Cc1nc2ccc(C3CC3)nc2n2c(-c3cc(CCC(C)(C)O)ccc3Cl)nnc12 [Example 69] | 0.891 |  | 0.001
23 | Cc1ccc2nc(C)c3nnc(-c4cc(C(C)(C)O)ccc4Cl)n3c2n1 [Example 71] |  | 2.17 | 0.109
24 | Cc1nc2ccc(C3(C)CC3)nc2n2c(-c3cc(C(C)(C)O)ccc3F)nnc12 [Example 72] |  | 2.17 | 0.032
25 | Cc1ccc(C2(O)CCC2)cc1-c1nnc2c(C)nc3cccnc3n12 [Example 73] |  | 2.17 | 0.189
26 | Cc1nc2cccnc2n2c(-c3cc(C4(O)CCOC4)ccc3Cl)nnc12 (centres unmarked) [Example 74] | 2.34 |  | 0.131
27 | Cc1nc2ccc(C(C)C)nc2n2c(-c3cc(C(C)(C)O)ccc3Cl)nnc12 [Example 77] | 1.4 |  | 
28 | Cc1ccc(C(C)(C)O)cc1-c1nnc2c(C)nc3ccc(C(C)C)nc3n12 [Example 78] | 2.85 |  | 0.01
29 | Cc1ccc(C(C)(C)O)cc1-c1nnc2c(C)nc3cc(C(C)C)cnc3n12 [Example 79] |  |  | 0.144
30 | Cc1ccc(CC(C)(C)O)cc1-c1nnc2c(C)nc3ccc(C4CC4)nc3n12 [Example 81] | 5.38 |  | 0.007
31 | Cc1nc2cccnc2n2c(-c3cc(C4(O)CCC4)ccc3F)nnc12 [Example 86] | 5.75 |  | 0.434
32 | Cc1ccc2nc(C)c3nnc(-c4cc(C5(O)CCC5)ccc4F)n3c2n1 [Example 90] | 0.485 |  | 0.103
33 | Cc1nc2ccc(C(C)C)nc2n2c(-c3cc(C4(O)CCC4)ccc3Cl)nnc12 [Example 91] | 0.077 |  | 0.001
34 | Cc1nc2ccc(C(C)C)nc2n2c(-c3cc(C4(O)CCC4)ccc3F)nnc12 [Example 92] | 0.553 |  | 0.002
35 | Cc1nc2ccc(C3CC3)nc2n2c(-c3cc(C4(O)CCOCC4)ccc3Cl)nnc12 [Example 94] | 2.72 |  | 0.001
36 | Cc1nc2ccc(C3CC3)nc2n2c(-c3cc(C4(O)CCOCC4)ccc3F)nnc12 [Example 95] | 1.37 |  | 0.005
37 | Cc1nc2ccc(C(F)(F)F)nc2n2c(-c3cc(C4(O)CCOCC4)ccc3Cl)nnc12 [Example 96] |  |  | 0.043
38 | Cc1nc2ccc(C3CC3)nc2n2c(-c3cc(C(C)(C)CO)ccc3F)nnc12 [Example 101] | 1.13 |  | 
39 | Cc1ccc(C2(O)CCOCC2)cc1-c1nnc2c(C)nc3ccc(C4CC4)nc3n12 [Example 103] | 1.01 |  | 0.003

Next, values leading:

Row | IC50 (PDE10) [µM] | Half-life - t½ [1] [h] | IC50 (PDE2A) [µM] | SMILES
40 |  | 2.17 |  | Cc1nc2ccc(C3CC3)nc2n2c(-c3cc(OC4COCC4O)ccc3Cl)nnc12 (racemic) [Example 58a]
41 | 2.44 | 2.17 |  | Cc1nc2cccnc2n2c(-c3cc(OC4COCC4O)ccc3Cl)nnc12 (single isomer, unassigned) [Example 55a]
42 |  | 2.17 |  | Cc1ccc(OC2COCC2O)cc1-c1nnc2c(C)nc3ccc(C4CC4)nc3n12 (single isomer, unassigned) [Example 57a]
43 |  | 2.17 |  | Cc1nc2ccc(C3CC3)nc2n2c(-c3cc(OC4COCC4O)ccc3Cl)nnc12 (single isomer, unassigned) [Example 58b]
44 |  | 2.17 |  | Cc1nc2ccc(C3CC3)nc2n2c(-c3cc(OC4COCC4O)ccc3Cl)nnc12 (single isomer, unassigned) [Example 58c]
45 | 5.94 |  |  | Cc1nc2ccc(C3CC3)nc2n2c(-c3cc(C4(O)CCOC4)ccc3Cl)nnc12 (single isomer, unassigned) [Example 97a]
46 | 0.891 |  |  | Cc1nc2ccc(C3CC3)nc2n2c(-c3cc(C4(O)CCOC4)ccc3Cl)nnc12 (single isomer, unassigned) [Example 97b]
47 | 1.41 |  | 0.429 | Cc1nc2ccc(C(F)(F)F)nc2n2c(-c3cc(OC4COCC4O)ccc3F)nnc12 (single isomer, unassigned) [Example 106a]
48 | 2.5 |  | 0.05 | Cc1nc2ccc(C(F)(F)F)nc2n2c(-c3cc(OC4COCC4O)ccc3F)nnc12 (single isomer, unassigned) [Example 106b]
51 | 0.262 |  |  | Cc1nc2ccc(C3CC3)nc2n2c(-c3cc(OC4CCOCC4O)ccc3F)nnc12 (single isomer, unassigned) [Example 108c]
52 | 0.63 |  |  | Cc1nc2ccc(C3CC3)nc2n2c(-c3cc(OC4CCOCC4O)ccc3F)nnc12 (single isomer, unassigned) [Example 108d]
53 | 1.67 |  | 0.014 | Cc1nc2ccc(C3CC3)nc2n2c(-c3cc(OC4COCCC4O)ccc3Cl)nnc12 (single isomer, unassigned) [Example 109a]
54 | 1.09 |  | 0.009 | Cc1nc2ccc(C3CC3)nc2n2c(-c3cc(OC4CCOCC4O)ccc3Cl)nnc12 (single isomer, unassigned) [Example 109b]
55 | 1.36 |  | 0.009 | Cc1nc2ccc(C3CC3)nc2n2c(-c3cc(OC4CCOCC4O)ccc3Cl)nnc12 (single isomer, unassigned) [Example 109c]
56 | 1.83 |  | 0.004 | Cc1nc2ccc(C3CC3)nc2n2c(-c3cc(OC4COCCC4O)ccc3Cl)nnc12 (single isomer, unassigned) [Example 109d]
57 | > 10 |  | 0.388 | Cc1nc2ccc(C(F)(F)F)nc2n2c(-c3cc(OC4COCCC4O)ccc3F)nnc12 (single isomer, unassigned) [Example 110b]
58 |  |  | 0.467 | Cc1nc2ccc(C(F)(F)F)nc2n2c(-c3cc(OC4CCOCC4O)ccc3F)nnc12 (single isomer, unassigned) [Example 110d]
59 | 4.51 |  | 0.109 | Cc1nc2cccnc2n2c(-c3cc(OCC4(O)CC4)ccc3Cl)nnc12 [Example 43a]
60 |  |  | 0.199 | Cc1nc2ccc(C(F)(F)F)nc2n2c(-c3cc(C4(O)CCOCC4)ccc3F)nnc12 [Example 96a]
61 |  |  | 0.087 | Cc1ccc(C2(O)CCOCC2)cc1-c1nnc2c(C)nc3ccc(C(F)(F)F)nc3n12 [Example 96b]
62 | 7.46 |  |  | Cc1nc2ccc(C(F)(F)F)nc2n2c(-c3cc(C4(O)CCOC4)ccc3F)nnc12 (centres unmarked) [Example 96c]
63 | 7980 |  | 0.622 | Cc1nc2ccc(C(F)(F)F)nc2n2c(-c3cc(C(C)(C)O)ccc3F)nnc12 [Example 103c]
